Broadly, the melting point is the temperature of the solid-liquid transition.

`O=C1c2cccnc2[S+]([O-])C(c2ccccc2)N1c1ccccc1` (centres unmarked) [Example 1d, 2,3-diphenyl-2,3-dihydro-4H-pyrido[3,2-e]-[1,3]thiazin-4-one 1-oxide] returned a melting point of 177 to 179 °C. With `O=C1CC2(CC2)CS(=O)(=O)C(c2ccccc2)N1c1ccccc1` (centres unmarked) [Example 2e, 6,7-diphenyl-5?^6-thia-7-azaspiro[2.6]nonane-5,5,8-trione] the figure was 186.6 to 187.7 °C (dec.); with `O=C1CCS(=O)(=O)C(c2ccccc2)N1c1ccccc1` (centres unmarked) [Example 2a, 2,3-diphenyl-2,3,5,6-tetrahydro-4H-1,3-thiazin-4-one 1,1-dioxide], 145 to 148 °C. To `O=C1c2ccccc2[S+]([O-])C(c2ccccc2)N1c1ccccc1` (centres unmarked) [Example 1c, 2,3-diphenyl-2,3-dihydro-4H-1,3-benzothiazin-4-one 1-oxide] belongs 208 to 209 °C; to `O=C1CC2(CC2)C[S+]([O-])C(c2ccccc2)N1c1ccccc1` (centres unmarked) [Example 1e, 6,7-diphenyl-5λ^4-thia-7-azaspiro[2.6]nonane-5,8-dione], 193 to 194 °C. As for `CC(=O)N[C@H]1C[S@+]([O-])[C@@H](c2ccccc2)N(c2ccccc2)C1=O` [Example 1b, N-[(1S,2S,5R)-1,4-dioxo-2,3-diphenyl-1λ^4,3-thiazinan-5-yl]acetamide], the melting point fell in the range of 176 to 179 °C.

`O=C1c2ccccc2S(=O)(=O)C(c2ccccc2)N1c1ccccc1` (centres unmarked) [Example 2c, 2,3-diphenyl-2,3-dihydro-4H-1,3-benzothiazin-4-one 1,1-dioxide] displayed a melting point of 163 to 165 °C.

For the compound `CC(=O)N[C@H]1CS(=O)(=O)[C@@H](c2ccccc2)N(c2ccccc2)C1=O` [Example 2b, N-[(2S,5R)-1,1,4-trioxo-2,3-diphenyl-1λ^6,3-thiazinan-5-yl]acetamide], the melting point is 170 to 194 °C (dec.).

Source of the values: US20220259165A1, “S-OXIDES OF 2,3-DIARYL-2,3-DIHYDRO-4H-1,3-THIAZIN-4-ONES AND 2,3-DIARYL-1,3-THIAZEPAN-4-ONES AND METHODS FOR MAKING” (The Penn State Research Foundation, priority 2019, published 2022).
